In US10906878B2, “Kinase inhibitors for the treatment of disease” (Dana-Farber Cancer Institute, Inc., priority 2013, dated 2021):
Where two headings read alike, the source gives them in different places.

How the values were obtained:
[1] = Microsome Stability Mouse; assay type: in vitro ADME; settings: mouse microsomes
EGFR L858R Ba/F3 cells = EGFR L858R Ba/F3 cells (Homo sapiens (Human), UniProt P00533, L858R); experiment: Ba/F3 cell growth inhibition (MTS assay), EGFR L858R; assay type: cell-based; settings: for IC50: L858R, read-out: EGFR Ba/F3 cells IC 50 (nM) Assay 1 L858R
Text: (§1) The specific cDNAs encoding the oncogenic alterations (EGFR: Del 19, L858R, L718Q, L844V, Del/T790M, L858R/T790M, Del 19/L718Q, Del 19/L844V, Del 19/T790M/L718Q and L858R/T790M/L718Q; FGFR: TEL-FGFR1, TEL-FGFR2, TEL-FGFR1 V561M, TEL-FGFR2 V561M; ALK: EML4-ALK; ROS1: CD74-ROS1) were cloned into the pDNA-Dual (BD Biosciences) vector using standard molecular biology techniques. Mutations were introduced using site-directed mutagenesis (Agilent) with mutant specific primers according to the manufacturer's instructions. All constructs were confirmed by DNA sequencing. The constructs were introduced into Ba/F3 cells using retroviral infection. Polyclonal cell lines were established by puromycin selection and subsequently cultured in the absence of interleukin-3 (IL-3). Uninfected Ba/F3 cells or cell lines expressing green fluorescent protein (GFP) were used as controls.
(§2) Growth and inhibition of growth was assessed by MTS assay. This assay, a colorimetric method for determining the number of viable cells, is based on the bioreduction of 3-(4,5-dimethylthiazol-2-yl)-5-(3-carboxymethoxyphenyl)-2-(4-sulfophenyl)-2H-tetrazolium (MTS) by cells to a formazan product that is soluble in cell culture medium, can be detected spectrophotometrically and was performed according to the manufacturer's recommended conditions. Ba/F3 cells were exposed to treatment for 72 hours and the number of cells used per experiment determined empirically to assure linear growth kinetics over that time period. All experimental points were set up in six to twelve wells and all experiments were repeated at least three times. […] The curves were fitted using a non-linear regression model with a sigmoidal dose response.

[2] = molecular target: EGFR Del/T790M Ba/F3 cells (Homo sapiens, UniProt P00533, T790M, cells depend on it, form not given); experiment: Ba/F3 cell growth inhibition (MTS assay), EGFR Del/T790M; assay type: cell-based; settings: for IC50: Del/T790M, read-out: EGFR Ba/F3 cells IC 50 (nM) Assay 1 Del/T790M
Text: as §1, §2

[3] = molecular target: EGFR L718Q/L858R Ba/F3 cells (Homo sapiens (Human), UniProt P00533, L718Q/L858R); experiment: Ba/F3 cell growth inhibition (MTS assay), EGFR L858R/L718Q; assay type: cell-based; settings: for IC50: L718Q/L858R; for EGFR activity (% Control, 100 nM drug) L858R/L718Q: Table F
[4] = molecular target: EGFR L858R/T790M/L718Q Ba/F3 cells (Homo sapiens (Human), UniProt P00533, L718Q/L858R/T790M); experiment: Ba/F3 cell growth inhibition (MTS assay), EGFR L858R/T790M/L718Q; assay type: cell-based; settings: for IC50: Assay 1, T/L/L718Q, read-out: EGFR Ba/F3 cells IC 50 (nM) Assay 1 T/L/L718Q; for EGFR activity (% Control, 100 nM drug) L858R/T790M/L718Q: Table F
Text: as §1, §2

EGFR Del Ba/F3 cells = EGFR Del Ba/F3 cells (Homo sapiens, UniProt P00533, cells depend on it, form not given); experiment: Ba/F3 cell growth inhibition (MTS assay), EGFR Del; assay type: cell-based; settings: for IC50: Del, read-out: EGFR Ba/F3 cells IC 50 (nM) Assay 1 Del; for EGFR activity (% Control, 100 nM drug) Del: Table F
Text: as §1, §2

[5] = molecular target: EGFR Wild type vIII Ba/F3 cells (Homo sapiens (Human), UniProt P00533, DELINS30-297G); experiment: Ba/F3 cell growth inhibition (MTS assay), EGFR Wild type vIII; assay type: cell-based; settings: Assay 1, read-out: EGFR Ba/F3 cells IC 50 (nM) Assay 1 Wild type vIII
[6] = molecular target: EGFR L858R/T790M Ba/F3 cells (Homo sapiens (Human), UniProt P00533, L858R/T790M); experiment: Ba/F3 cell growth inhibition (MTS assay), EGFR L858R/T790M; assay type: cell-based; settings: for IC50: Assay 1, L858R/T790M, read-out: EGFR Ba/F3 cells IC 50 (nM) Assay 1 L858R/T790M
Text: as §1, §2

KIF5B/Ret_V804M = experiment: Ba/F3 cell growth inhibition (MTS assay), KIF5B/Ret_V804M; assay type: cell-based
Description: as §2

[7] = molecular target: EGFR Del/T790M/L718Q Ba/F3 cells (Homo sapiens, UniProt P00533, L718Q/T790M, cells depend on it, form not given); assay type: cell-based
Text: as §1, §2

[8] = Assay 1, read-out: EGFR Ba/F3 cells IC 50 (nM) Assay 1 L718Q/L858R

Structure (SMILES)	EGFR activity (% Control, 1.0 μM drug) Assay 1 L858R (EGFR L858R Ba/F3 cells; 1.0 μM drug, Assay 1) [% Control]	EGFR activity (% Control, 1.0 μM drug) Assay 2 L858R (EGFR L858R Ba/F3 cells; 1.0 μM drug) [% Control]	IC50 (EGFR L858R Ba/F3 cells; Assay 1) [nM]	EGFR activity (% Control, 1.0 μM drug) Assay 1 Del/T790M ([2]; 1.0 μM drug, Assay 1) [% Control]	EGFR activity (% Control, 1.0 μM drug) Assay 2 Del/T790M ([2]; 1.0 μM drug, Assay 2) [% Control]	IC50 ([2]; Assay 1) [nM]	IC50 [4] [nM]	EGFR activity (% Control, 1.0 μM drug) Assay 1 Del (EGFR Del Ba/F3 cells; 1.0 μM drug, Assay 1) [% Control]	EGFR activity (% Control, 1.0 μM drug) Assay 2 Del (EGFR Del Ba/F3 cells; 1.0 μM drug, Assay 2) [% Control]	IC50 (EGFR Del Ba/F3 cells; Assay 1) [nM]	IC50 [5] [nM]	IC50 [6] [nM]	EGFR activity (% Control, 1.0 μM drug) Assay 1 KIF5B/Ret_V804M (KIF5B/Ret_V804M) [% Control]	EGFR activity (% Control, 1.0 μM drug) Assay 1 Del/T790M/L718Q ([7]; 1.0 μM drug, Assay 1) [% Control]	EGFR activity (% Control, 1.0 μM drug) Assay 2 Del/T790M/L718Q ([7]; 1.0 μM drug, Assay 2) [% Control]	EGFR activity (% Control, 100 nM drug) L858R (EGFR L858R Ba/F3 cells; Table F) [% Control]	EGFR activity (% Control, 100 nM drug) L858R/L718Q [3] [% Control]	EGFR activity (% Control, 100 nM drug) L858R/T790M/L718Q [4] [% Control]	EGFR activity (% Control, 100 nM drug) L858R/T790M ([6]; Table F) [% Control]	also measured
C=CC(=O)Nc1cccc(N(C(=O)Nc2ccccc2)c2cc(Nc3ccc(N4CCN(C)CC4)cc3OC)ncn2)c1 [Compound 1A, N-(3-(1-(6-((2-methoxy-4-(4-methylpiperazin-1-yl)phenyl)amino)pyrimidin-4-yl)-3-phenylureido)phenyl)acrylamide]	2	5	1.56	3	1	19	178	4	0	6.33	16.4	3.1	65	63	83					Microsome Stability Mouse min [1]: 14 min; IC50 [3, 8]: 49.8 nM; IC50 ([3]; Assay 2, read-out: EGFR Ba/F3 cells IC 50 (nM) Assay 2 L718Q/L858R): 149 nM; EGFR Ba/F3 cells Assay 1 Del/T/L718Q % inhibition 1.0 uM ([7]; Assay 1, Del/T/L718Q, 1.0 uM): 47%
C=CC(=O)Nc1ccc(OC)c(N(C(=O)Nc2c(C)cccc2C)c2cc(Nc3ccc(N4CCN(CC)CC4)cc3)ncn2)c1 [Compound 8A]	2	10		1	100			3	72				108	113	93					
C=CC(=O)Nc1ccc(OC)c(Nc2cc(N(C(=O)Nc3c(C)cccc3C)c3ccc(N4CCN(CC)CC4)cc3)ncn2)c1 [Compound 9A]	2	2		2	39			3	4				93	90	86					
C=CC(=O)Nc1cccc(N(C(=O)Nc2ccccc2Cl)c2cc(Nc3ccc(N4CCN(C)CC4)cc3OC)ncn2)c1 [Compound 11A]	2	3		1	5			3	4				103	84	82					
COc1ccc(NC(=O)/C=C/CN(C)C)cc1Nc1cc(N(C)C(=O)Nc2ccccc2)ncn1 [Compound 20A]			0.994			211	917			2.58		99.1				2	48	93	26	EGFR activity (% Control, 100 nM drug) DEL/T790M ([2]; 100 nM drug, Table F): 126 % Control; IC50 [3, 8]: 256 nM; EGFR activity (% Control, 100 nM drug) Del (EGFR Del Ba/F3 cells): 2 % Control
CN(C)C/C=C/C(=O)Nc1cccc(Nc2cc(N(C)C(=O)Nc3ccccc3)ncn2)c1 [Compound 21A]																4	94	102	100	EGFR activity (% Control, 100 nM drug) DEL/T790M ([2]; 100 nM drug, Table F): 107 % Control; EGFR activity (% Control, 100 nM drug) Del (EGFR Del Ba/F3 cells): 10 % Control
C=CC(=O)Nc1cccc(N(C(=O)Nc2ccc(F)c(Cl)c2)c2cc(Nc3ccc(N4CCN(C)CC4)cc3OC)ncn2)c1 [Compound 22A]																3	84	106	4	EGFR activity (% Control, 100 nM drug) DEL/T790M ([2]; 100 nM drug, Table F): 84 % Control; EGFR activity (% Control, 100 nM drug) Del (EGFR Del Ba/F3 cells): 3 % Control
C=CC(=O)Nc1cccc(N(C(=O)N[C@@H](C)c2ccccc2)c2cc(Nc3ccc(N4CCN(C)CC4)cc3OC)ncn2)c1 [Compound 34A]			0.51			60.4	312			19.7	10.1	20								Microsome Stability Mouse min [1]: 9.4 min
C=CC(=O)Nc1cccc(N(C(=O)NCc2cccs2)c2cc(Nc3ccc(N4CCOCC4)cc3OC)ncn2)c1 [Compound 55A]			0.5			15.9	657			2	2.3	2.4								Microsome Stability Mouse min [1]: 1.8 min
C=CC(=O)Nc1ccc(OC)c(Nc2cc(N(C)C(=O)Nc3ccccc3)ncn2)c1 [Compound 74A]			0.572			278	780			5.16		215								IC50 [3, 8]: 243 nM
C=CC(=O)Nc1cccc(N(C(=O)NCc2ccccc2)c2cc(Nc3ccc(N4CCN(C)CC4)cc3OC)nc(Cl)n2)c1 [Compound 78A]			2.66			68.2	2240			23.9	19.9	41.8								
Cc1ccc(C(=O)Nc2ccc(CN3CCN(C)CC3)c(C(F)(F)F)c2)cc1C#Cc1cnc2cccnn12 [Ponatinib]														48						EGFR activity (% Control, 1.0 μM drug) Assay 1 L858R (EGFR L858R Ba/F3 cells): 98 % Control; EGFR activity (% Control, 1.0 μM drug) Assay 1 Del/T790M [2]: 79 % Control; EGFR activity (% Control, 1.0 μM drug) Assay 1 Del (EGFR Del Ba/F3 cells): 17 % Control; KIF5B/Ret_V804M Ba/F3 cell growth (% control, 1.0 μM drug) (KIF5B/Ret_V804M; Assay 1): 2 % Control
C=CC(=O)Nc1cccc(Oc2nc(Nc3ccc(N4CCN(C)CC4)cc3OC)ncc2Cl)c1 [WZ4002, reference compound]	2	2											93			2	94	104	3	EGFR activity (% Control, 100 nM drug) L858R (EGFR L858R Ba/F3 cells; Table G): 0 % Control; EGFR activity (% Control, 100 nM drug) DEL/T790M [2]: 2 % Control; EGFR activity (% Control, 100 nM drug) Del/T790M [2]: 6 % Control; EGFR activity (% Control, 1.0 μM drug) Assay 1 Del/T790M [2]: 1 % Control; EGFR activity (% Control, 1.0 μM drug) Assay 2 Del/T790M [2]: 3 % Control; EGFR activity (% Control, 1.0 μM drug) Assay 1 Del (EGFR Del Ba/F3 cells): 3 % Control; EGFR activity (% Control, 1.0 μM drug) Assay 2 Del (EGFR Del Ba/F3 cells): 6 % Control; EGFR activity (% Control, 100 nM drug) L858R/T790M ([6]; Table G): 30 % Control; EGFR activity (% Control, 1.0 μM drug) Assay 1 Del/T790M/L718Q [7]: 91 % Control; EGFR activity (% Control, 1.0 μM drug) Assay 2 Del/T790M/L718Q [7]: 85 % Control
